The source made the active and inactive calls. The rule behind the calls is not given here.
Legend:
[1] = Inhibition of P-glycoprotein (unknown origin) expressed in MDCK cells assessed as reduction of calcein-AM transport after 30 mins by fluorescence assay; format: cell-based, Homo sapiens
MDCK = assay: Activation of ATPase activity of P-glycoprotein (unknown origin) expressed in MDCK cells assessed as reduction of reduction of ATP level after 2 hrs by luminescence assay; format: cell-based; settings: Homo sapiens
[2] = biological target: Multidrug resistance-associated protein 1 (Homo sapiens, UniProt P33527); assay: Inhibition of MRP1 (unknown origin) expressed in MDCK cells assessed as reduction of calcein-AM transport after 30 mins by fluorescence assay; format: cell-based
Multidrug resistance-associated protein 1, sequence (P33527 whole entry): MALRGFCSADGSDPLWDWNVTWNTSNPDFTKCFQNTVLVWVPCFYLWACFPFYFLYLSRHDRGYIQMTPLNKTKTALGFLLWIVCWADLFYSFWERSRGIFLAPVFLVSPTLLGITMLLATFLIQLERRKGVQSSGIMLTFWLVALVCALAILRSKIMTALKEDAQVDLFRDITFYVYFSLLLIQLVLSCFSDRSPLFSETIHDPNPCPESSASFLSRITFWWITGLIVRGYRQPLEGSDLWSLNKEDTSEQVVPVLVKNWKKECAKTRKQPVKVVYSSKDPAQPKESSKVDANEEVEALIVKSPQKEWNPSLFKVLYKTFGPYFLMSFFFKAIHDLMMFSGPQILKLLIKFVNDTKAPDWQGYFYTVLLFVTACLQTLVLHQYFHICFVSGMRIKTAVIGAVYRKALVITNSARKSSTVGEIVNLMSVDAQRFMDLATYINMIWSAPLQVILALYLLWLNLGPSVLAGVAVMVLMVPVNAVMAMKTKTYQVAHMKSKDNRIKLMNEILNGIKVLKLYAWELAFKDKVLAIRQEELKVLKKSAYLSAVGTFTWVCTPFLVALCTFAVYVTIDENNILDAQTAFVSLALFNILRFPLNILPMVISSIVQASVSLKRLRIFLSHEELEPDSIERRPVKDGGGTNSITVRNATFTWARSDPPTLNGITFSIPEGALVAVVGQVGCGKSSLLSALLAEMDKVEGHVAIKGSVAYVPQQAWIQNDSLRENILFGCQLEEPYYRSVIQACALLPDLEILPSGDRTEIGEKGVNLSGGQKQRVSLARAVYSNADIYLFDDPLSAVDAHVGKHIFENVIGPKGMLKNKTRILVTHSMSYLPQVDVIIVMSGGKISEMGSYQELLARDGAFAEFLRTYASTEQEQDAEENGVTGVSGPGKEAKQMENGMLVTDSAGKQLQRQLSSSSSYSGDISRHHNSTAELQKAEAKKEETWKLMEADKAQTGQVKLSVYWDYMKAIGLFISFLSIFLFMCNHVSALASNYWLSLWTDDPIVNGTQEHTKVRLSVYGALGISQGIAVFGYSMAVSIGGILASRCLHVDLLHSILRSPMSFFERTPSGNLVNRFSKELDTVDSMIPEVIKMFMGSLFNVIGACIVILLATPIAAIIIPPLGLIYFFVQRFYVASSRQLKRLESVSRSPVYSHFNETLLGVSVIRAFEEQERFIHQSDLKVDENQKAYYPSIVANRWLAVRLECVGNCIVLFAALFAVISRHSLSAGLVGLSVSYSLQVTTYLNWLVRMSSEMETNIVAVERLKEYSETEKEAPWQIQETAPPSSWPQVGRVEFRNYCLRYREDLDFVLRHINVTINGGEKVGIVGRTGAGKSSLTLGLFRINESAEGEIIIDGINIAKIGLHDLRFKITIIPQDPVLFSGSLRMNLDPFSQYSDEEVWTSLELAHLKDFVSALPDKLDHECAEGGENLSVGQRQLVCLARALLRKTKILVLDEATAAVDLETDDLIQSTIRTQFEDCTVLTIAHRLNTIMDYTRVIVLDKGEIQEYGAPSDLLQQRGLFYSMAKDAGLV

[3] = biological target: T1, Broad substrate specificity ATP-binding cassette transporter ABCG2 (Homo sapiens, UniProt Q9UNQ0); assay: Inhibition of BCRP (unknown origin) expressed in MDCK cells assessed as reduction of […] transport after 30 mins by fluorescence assay; format: cell-based
T1 sequence (Q9UNQ0 whole entry): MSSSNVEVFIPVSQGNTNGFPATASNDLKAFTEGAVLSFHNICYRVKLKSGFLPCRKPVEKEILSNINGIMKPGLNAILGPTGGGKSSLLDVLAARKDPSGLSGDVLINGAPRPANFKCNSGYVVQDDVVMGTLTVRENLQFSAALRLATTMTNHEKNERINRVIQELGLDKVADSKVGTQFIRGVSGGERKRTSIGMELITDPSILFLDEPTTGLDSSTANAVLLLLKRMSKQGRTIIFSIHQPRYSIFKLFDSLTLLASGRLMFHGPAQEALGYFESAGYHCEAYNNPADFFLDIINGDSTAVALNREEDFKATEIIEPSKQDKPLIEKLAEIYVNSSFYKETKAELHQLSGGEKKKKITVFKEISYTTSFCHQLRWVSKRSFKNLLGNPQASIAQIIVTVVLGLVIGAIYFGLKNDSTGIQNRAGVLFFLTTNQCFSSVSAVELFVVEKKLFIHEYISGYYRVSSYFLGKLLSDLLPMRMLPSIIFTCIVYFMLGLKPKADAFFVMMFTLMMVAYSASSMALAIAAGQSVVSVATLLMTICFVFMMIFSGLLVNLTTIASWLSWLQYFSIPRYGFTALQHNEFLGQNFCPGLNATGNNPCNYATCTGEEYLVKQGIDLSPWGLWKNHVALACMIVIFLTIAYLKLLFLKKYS

[4] = P-glycoprotein-mediated transport in human Caco2 cells assessed as efflux ratio of apparent permeability from basolateral to apical over apical to basolateral after 120 mins; format: ADME, cell-based; settings: caco-2, 2 h

Row | SMILES | EC50 [1] [µM] | EC50 [2] [µM] | EC50 [3] [µM] | Ratio [4] | Activity (MDCK)
1 | COc1cc2c(cc1OC)CN(CCCOc1ccnc3ccccc13)CC2 | 40 | > 100 | > 100 |  | inactive
2 | COc1cc2c(cc1OC)CN(CCCCOc1ccc3ccccc3n1)CC2 | 4.3 | > 100 | > 100 | 4.2 | inactive
3 | COc1cc2c(cc1OC)CN(CCCCCOc1ccc3ccccc3n1)CC2 | 1.2 | > 100 | > 100 | 2.9 | inactive

More lines, main results first:

Row | EC50 [1] [µM] | EC50 [2] [µM] | EC50 [3] [µM] | Ratio [4] | SMILES | Activity (MDCK)
4 | 67 | > 100 | > 100 |  | COc1cc2c(cc1OC)CN(C(=O)COc1ccc3ccccc3n1)CC2 | inactive
5 | 1.3 | > 100 | > 100 | 4.6 | COc1cc2c(cc1OC)CN(CCOc1ccc3ccccc3n1)CC2 | inactive
6 | 6.1 | > 100 | > 100 | 4.4 | COc1cc2c(cc1OC)CN(CCCOc1ccc3ccccc3n1)CC2 | inactive

Source: ChEMBL document CHEMBL2396617, “Activity-lipophilicity relationship studies on P-gp ligands designed as simplified tariquidar bulky fragments” (Bioorg Med Chem Lett, 2013)
